# Test results: patent US20230256092A1, “COMBINED USE OF ANTI-CCR8 ANTIBODY AND CHEMOTHERAPEUTIC AGENT” (Shionogi & Co., Ltd., priority 2020, published 2023)
# Assays:
# Format in all cases: in vivo, mouse
# [1] = tested on: breast cancer-derived 4T1 cells; experiment: Example 1: Balb/c mice inoculated with 4T1 cells, carboplatin combination; conditions: antibody 50 μg iv days 5, 8; carboplatin 114 mg/kg iv day 5; single groups 8, 12, 15, 18, 22 days after inoculation, combined from 8 days; Mann-Whitney U
# Method: (§1) The back of each Balb/c mouse (6 weeks old, female) was intracutaneously inoculated with 2×10^5 breast cancer-derived 4T1 cells (50 μL).
# (§2) To an anti-mouse CCR8 antibody single administration group, 50 μg (200 μL) of an anti-mouse CCR8 antibody (clone SA214G2, BioLegend, Inc.) was intravenously administered 5 and 8 days after tumor inoculation, and saline was intravenously administered at a volume of 11.4 mL/kg body weight 5 days after tumor inoculation (N=10). To a carboplatin single administration group, 50 μg (200 μL) of an isotype control antibody (clone LTF-2, Bio X Cell, Inc.) was intravenously administered 5 and 8 days after tumor inoculation, and carboplatin (trade name: PARAPLATIN, Bristol-Myers Squibb Company) at 114 mg/kg body weight was intravenously administered at a volume of 11.4 mL/kg body weight 5 days after tumor inoculation (N=10). […] Tumor volumes were measured every 3 to 4 days from 5 days after tumor inoculation. The tumor volume (mm^3) was measured in long diameter (mm)×short diameter (mm)×short diameter (mm)/2, and a significant difference test based on a Mann-Whitney U method (significance level: P<0.05) was conducted.
# [2] = tested on: bladder cancer-derived MB49 cells; experiment: Example 4: C57BL/6 mice inoculated with MB49 cells, carboplatin or cisplatin combination; conditions: antibody 50 μg iv days 4, 7; carboplatin 40 mg/kg or cisplatin 3 mg/kg iv day 4; single groups 7, 10, 14, 17, 18 days; carboplatin combination from 10 days, cisplatin combination from 14 days; Mann-Whitney U
# Method: The back of each C57BL/6 mouse (6 weeks old, male) was intracutaneously inoculated with 2×10^5 bladder cancer-derived MB49 cells (50 μL).
# To an anti-mouse CCR8 antibody single administration group, 50 μg (200 μL) of an anti-mouse CCR8 antibody (clone SA214G2, BioLegend, Inc.) was intravenously administered 4 and 7 days after tumor inoculation, and saline was intravenously administered at a volume of 10 mL/kg body weight 4 days after tumor inoculation (N=10).
# To a carboplatin single administration group, 50 μg (200 uL) of an isotype control antibody (clone LTF-2, Bio X Cell, Inc.) was intravenously administered 4 and 7 days after tumor inoculation, and carboplatin (trade name: PARAPLATIN, Bristol-Myers Squibb Company) at 40 mg/kg body weight was intravenously administered at a volume of 10 mL/kg body weight 4 days after tumor inoculation (N=10). […]
# Tumor volumes were measured every 1 to 4 days from 4 days after tumor inoculation. The tumor volume (mm^3) was measured in long diameter (mm)×short diameter (mm)×short diameter (mm)/2, and a significant difference test based on a Mann-Whitney U method (significance level: P<0.05) was conducted. […]
# [3] = tested on: breast cancer-derived 4T1 cells; experiment: Example 3: hCCR8-KI (KI/KI) mice inoculated with 4T1 cells, cisplatin combination; conditions: antibody 400 μg iv days 5, 8; cisplatin 8 mg/kg iv day 5; cisplatin single 8, 11, 13, 15, 18, 21, 25, 29 days, combined from 8 days; Mann-Whitney U
# Method: To an anti-human CCR8 antibody single administration group, 400 μg (200 μL) of an anti-human CCR8 antibody (humanized 10A11 antibody (light chain variable region: IGKV4-1 N53Q+G29R (SEQ ID NO: 59)/heavy chain variable region: IGHV3-15 T94R (SEQ ID NO: 41))) was intravenously administered 5 and 8 days after tumor inoculation, and saline was intravenously administered at a volume of 16 mL/kg body weight 5 days after tumor inoculation (N=10). To a cisplatin single administration group, 200 μL of a control solution (obtained by diluting a buffer solution used for the antibody with saline in line with an antibody dilution ratio) was intravenously administered 5 and 8 days after tumor inoculation, and cisplatin (trade name: RANDA, Nippon Kayaku Co., Ltd.) at 8 mg/kg body weight was intravenously administered at a volume of 16 mL/kg body weight 5 days after tumor inoculation (N=10). […] Tumor volumes were measured every 2 to 4 days from 5 days after tumor inoculation. The tumor volume (mm^3) was measured in long diameter (mm)×short diameter (mm)×short diameter (mm)/2, and a significant difference test based on a Mann-Whitney U method (significance level: P<0.05) was conducted.
# [4] = tested on: lung cancer-derived ASB-XIV cells; experiment: Example 7: hCCR8-KI (KI/KI) mice inoculated with ASB-XIV cells, cisplatin combination; conditions: antibody 1 mg/kg iv and cisplatin 3 mg/kg iv day 5; 14, 17 and 19 days after tumor inoculation; Mann-Whitney U
# Method: To an anti-human CCR8 antibody single administration group, an anti-human CCR8 antibody (humanized 10A11 antibody (light chain variable region: IGKV4-1 N53Q+G29R (SEQ ID NO: 59)/heavy chain variable region: IGHV3-15 T94R (SEQ ID NO: 41))) at 1 mg/10 mL/kg body weight and saline at 10 mL/kg body weight were intravenously administered 5 days after tumor inoculation (N=10). To a cisplatin single administration group, a control solution at 10 mL/kg body weight and cisplatin (trade name: RANDA, Nippon Kayaku Co., Ltd.) at 3 mg/10 mL/kg body weight were intravenously administered 5 days after tumor inoculation (N=10). To an anti-human CCR8 antibody and cisplatin combined administration group, an anti-human CCR8 antibody at 1 mg/10 mL/kg body weight and cisplatin at 3 mg/10 mL/kg body weight were intravenously administered 5 days after tumor inoculation (N=10). To a control group, a control solution at 10 mL/kg body weight and saline at 10 mL/kg body weight were intravenously administered 5 days after tumor inoculation (N=10). Tumor volumes were measured every 2 to 5 days from 5 days after tumor inoculation. The tumor volume (mm^3) was measured in long diameter (mm)×short diameter (mm)×short diameter (mm)/2, and a significant difference test based on a Mann-Whitney U method (significance level: P<0.05) was conducted.
# [5] = tested on: lung cancer-derived ASB-XIV cells; experiment: Example 8: hCCR8-KI (KI/KI) mice inoculated with ASB-XIV cells, paclitaxel combination
# Method: To an anti-human CCR8 antibody single administration group, an anti-human CCR8 antibody (humanized 10A11 antibody (light chain variable region: IGKV4-1 N53Q+G29R (SEQ ID NO: 59)/heavy chain variable region: IGHV3-15 T94R (SEQ ID NO: 41))) at 0.5 mg/10 mL/kg body weight and saline at 10 mL/kg body weight were intravenously administered 5 days after tumor inoculation (N=10). To a paclitaxel single administration group, saline at 10 mL/kg body weight and paclitaxel (trade name: TAXOL, Bristol-Myers Squibb Company) at 8 mg/10 mL/kg body weight were intravenously administered 5 days after tumor inoculation (N=10). To an anti-human CCR8 antibody and paclitaxel combined administration group, an anti-human CCR8 antibody at 0.5 mg/10 mL/kg body weight and paclitaxel at 8 mg/10 mL/kg body weight were intravenously administered 5 days after tumor inoculation (N=10). To a control group, saline was intravenously administered at 20 mL/kg 5 days after tumor inoculation (N=10). Tumor volumes were measured every 2 to 5 days from 5 days after tumor inoculation. The tumor volume (mm^3) was measured in long diameter (mm)×short diameter (mm)×short diameter (mm)/2, and a significant difference test based on a Student's T: one-sided test method (significance level: P<0.05) was conducted.
# [6] = tested on: breast cancer-derived 4T1 cells; experiment: Example 2: Balb/c mice inoculated with 4T1 cells, gemcitabine combination; conditions: antibody 50 μg iv days 5, 8; gemcitabine 50 mg/kg iv day 5; gemcitabine single 8, 12, 15, 18, 22 days, combined from 8 days; Mann-Whitney U
# Method: as §1
# as §2, with “10” for “11.4”, “gemcitabine” for “carboplatin”, “GEMZAR, Eli Lilly Inc.)” for “PARAPLATIN, Bristol-Myers Squibb Company)”, “50” for “114”
structure (smiles),measurement,setting,value
N.N.O=C([O-])C1(C(=O)[O-])CCC1.[Pt+2] [carboplatin],tumor volume as compared to the control group,[1],no significant difference
same,tumor volume as compared to the control group,[2],no significant difference
"N.N.[Cl][Pt][Cl] [cisplatin, reference compound]",tumor volume as compared to the control group,[3],significant decrease
same,tumor volume as compared to the control group,[2],no significant difference
same,tumor volume as compared to the control group,[4],no significant decrease
CC(=O)O[C@H]1C(=O)[C@@]2(C)[C@H]([C@H](OC(=O)c3ccccc3)[C@]3(O)C[C@H](OC(=O)[C@H](O)[C@@H](NC(=O)c4ccccc4)c4ccccc4)C(C)=C1C3(C)C)[C@]1(OC(C)=O)CO[C@@H]1C[C@@H]2O [paclitaxel],tumor volume as compared to the control group,"[5]; antibody 0.5 mg/kg iv and paclitaxel 8 mg/kg iv day 5, antibody single 10, 12, 14, 18 days, paclitaxel single 10 and 12 days, combined from 10 days, Student's T one-sided",significant decrease
same,"tumor volume as compared to the control group, later time points","[5]; paclitaxel 8 mg/kg iv day 5, 14 and 17 days after tumor inoculation",the significant difference disappeared
Nc1ccn([C@@H]2O[C@H](CO)[C@@H](O)C2(F)F)c(=O)n1 [gemcitabine],tumor volume as compared to the control group,[6],significant decrease
